# Test results from patent US10087191B2, “Piperidine derivative and preparation method and pharmaceutical use thereof” (Jiangsu Hengrui Medicine Co., Ltd., priority 2015, dated 2018).
# Legend:
# estrogen receptor (ER) = estrogen receptor (ER) (Homo sapiens (Human), UniProt P03372); assay: Inhibition of the binding of estrogen (E) to estrogen receptor (ER), MCF-7/ERE-luciferase reporter cells; type: cell-based; details: MCF-7/ERE-luciferase cells, 0.1 nM estradiol, 24 hours; read-out: IC50 value of inhibition effect on the binding of E to ER
# MCF7 cells = assay: Inhibition of the proliferation of MCF7 cells (Cell Titer-Glo); type: cell-based; details: Homo sapiens, MCF-7 cells, 72 hours, read-out: IC50 value of inhibition effect on the proliferation of MCF7 cells
# Outline: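 Viability by Cell Titer-Glo luminescence; IC50 from signal versus log concentration.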
# ERα = ERα (Homo sapiens (Human), UniProt P03372); assay: Degradation effect on ERα in MCF-7 cells (ERα Duoset ELISA); type: cell-based; details: MCF-7 cells; read-out: IC50 value of the degradation effect on ERα
# Method: In order to determine the degradation effect on ER induced by the compounds of the present invention, the following method was used to determine the degradation effect of the compounds of the present invention on ER.
# MCF-7 cell line (TChu 74, Cell Bank of Chinese Academy of Sciences typical culture preservation Committee)
# ERα Duoset Kit (#DYC5715E, R&D System)
# MCF-7 cells were incubated in DMEM/F-12 medium containing 10% FBS.
# On the first day of the experiment, MCF-7 cells were resuspended in DMEM/F-12 medium containing 10% FBS treated by activated carbon, then inoculated into a 48-well plate with a density of 50,000 cells/well and incubated for 22-24 hours.
# On the second day of the experiment, the test compound was diluted with medium and added to a 48-well plate. The ERα-capture antibody was diluted to 1 μg/ml with PBS, and added to a 96-well plate at 100 μl/well. The plate was sealed and coated overnight at room temperature.
# On the third day of the experiment, the coated 96-well plate was washed twice with PBS, added with a sealing solution (1% BSA in PBS) at 110 μl/well and sealed for 1 hour at room temperature. The 48-well plate was washed once with PBS, and the residual liquid was removed. Then, 60 μl of lysis (6 M urea, 1 mM EDTA, 0.5% Triton X-100, 1 mM PMSF, Protease Inhibitor cocktail) was added to each well. After lysis on ice for 15 minutes, the diluent (1 mM EDTA, 0.5% TritonX-100 dissolved in PBS) was added. The cell-diluted lysate was transferred to a 96-well plate at 100 μl/well, then the plate was incubated at room temperature for 2 hours. The diluted primary antibody was added after the plate was washed 4 times with a washing liquid (PBST). After incubation for 1 hour, the 96-well plate was washed 4 times, and the second antibody was added, then the plate was incubated for 30 minutes. After the plate was washed with a washing liquid, TMB chromogenic solution was added and incubated for 15 minutes. The reaction was stopped by the addition of 1 M H2SO4, then the light absorption at 450 nm was read.
# [1] = Pharmacokinetics assay in BALB/C nude mice after intragastrical administration; type: in vivo; details: female, mouse, plasma, po, 3 mg/kg; for AUC: read-out: Area Under Curve AUC; for CL/F: read-out: Clearance CL/F (converted); for half-life: read-out: Half-Life t½ (converted); for MRT: read-out: Mean Residence Time MRT; for Cmax: read-out: Plasma Conc. Cmax
# Method: BALB/C nude mice were used as test animals. The drug concentration in plasma at different time points was determined by LC/MS/MS after intragastrical administration of the compounds of Examples 10, 14, 20, 21, 57, 68, 71, 73, 74, 76 and 89 to BALB/C nude mice. The pharmacokinetic behavior of the compounds of the present invention was studied and evaluated in BALB/C nude mice.
# Ninety-nine (99) female BALB/C nude mice were equally divided into 11 groups, which were purchased from SINO-BRITSH SIPPR/BK LAB. ANIMAL LTD., CO, with Certificate No.: SCXK (Shanghai) 2008-0016.
# The appropriate amount of each test compound was weighed, and successively added with 9% PEG400+0.5% tween 80+0.5% PVP+90% aqueous solution of 0.5% CMC.
# After an overnight fast, 99 female BALB/C nude mice were equally divided into 11 groups, and administered the test compounds intragastrically at an administration volume of 0.2 mL/10 g.
# Blood (0.1 mL) was sampled (3 mice at each time point) at 0.5, 1.0, 2.0, 4.0, 6.0, 8.0, 11.0 and 24.0 hours after administration. The samples were stored in heparinized test tubes, and centrifuged for 10 minutes at 3,500 rpm to separate the blood plasma. The plasma samples were stored at −20° C. The plasma concentration of the test compounds in BALB/C nude mice after intragastrical administration was determined by LC/MS/MS.
# Pharmacokinetic parameters of the compounds of Examples 10, 14, 20, 21, 57, 68, 71, 73, 74, 76 and 89 of the present invention are shown below.
# Chain of estrogen receptor (ER) (P03372 whole entry): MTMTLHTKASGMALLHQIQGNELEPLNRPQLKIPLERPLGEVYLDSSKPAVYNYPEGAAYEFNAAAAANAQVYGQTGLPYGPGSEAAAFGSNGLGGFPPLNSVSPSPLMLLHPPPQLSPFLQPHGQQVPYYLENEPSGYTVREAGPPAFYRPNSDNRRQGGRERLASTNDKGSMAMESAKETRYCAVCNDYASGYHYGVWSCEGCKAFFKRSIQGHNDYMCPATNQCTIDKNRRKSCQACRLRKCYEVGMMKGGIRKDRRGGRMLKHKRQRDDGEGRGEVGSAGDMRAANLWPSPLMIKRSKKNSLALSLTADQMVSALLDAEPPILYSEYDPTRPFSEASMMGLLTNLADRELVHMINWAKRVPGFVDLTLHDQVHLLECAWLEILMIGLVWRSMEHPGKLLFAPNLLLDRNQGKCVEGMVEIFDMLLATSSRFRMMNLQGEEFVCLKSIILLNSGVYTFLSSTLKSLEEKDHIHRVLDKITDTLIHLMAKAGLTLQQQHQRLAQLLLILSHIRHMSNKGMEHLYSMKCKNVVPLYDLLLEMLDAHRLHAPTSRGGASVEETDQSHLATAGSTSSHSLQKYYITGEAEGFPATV
# Chain of ERα (P03372 whole entry): as above
Structure (SMILES),IC50 (estrogen receptor (ER)) [nM],IC50 (MCF7 cells) [nM],DC50 (ERα) [nM],AUC [1] [ng·h/mL],CL/F [1] [mL/min/kg],half-life [1] [h],MRT [1] [h],Cmax [1] [ng/mL]
"C[C@@H]1Cc2cc(-c3cnn(C(F)F)c3)ccc2[C@@H](c2c(F)cc(/C=C/C(=O)O)cc2F)N1CC(C)(C)F [Example 14, (E)-3-(4-((1S,3R)-6-(1-(difluoromethyl)-1H-pyrazol-4-yl)-2-(2-fluoro-2-methylpropyl)-3-methyl-1,2,3,4-tetrahydroisoquinolin-1-yl)-3,5-difluorophenyl)acrylic acid]",0.29,0.06,0.64,32700,25.5,4.74,5.93,6750
"C[C@@H]1Cc2c(oc3ccccc23)[C@@H](c2c(F)cc(/C=C/C(=O)O)cc2F)N1CC(C)(C)F [Example 68, (E)-3-(3,5-difluoro-4-((1R,3R)-2-(2-fluoro-2-methylpropyl)-3-methyl-1,2,3,4-tetrahydrobenzofuro[2,3-c]pyridin-1-yl)phenyl)acrylic acid]",0.31,0.04,0.11,13200,105,2.32,3.7,3420
"C[C@@H]1Cc2cc3c(cc2[C@@H](c2c(F)cc(/C=C/C(=O)O)cc2F)N1CC(C)(C)F)OCO3 [Example 71, (E)-3-(3,5-difluoro-4-((5S,7R)-6-(2-fluoro-2-methylpropyl)-7-methyl-5,6,7,8-tetrahydro-[1,3]dioxolo[4,5-g]isoquinolin-5-yl)phenyl)acrylic acid]",0.74,0.12,0.06,8810,158,1.59,2.62,4130
"C[C@@H]1Cc2c(oc3cccc(F)c23)[C@@H](c2c(F)cc(/C=C/C(=O)O)cc2F)N1CC(C)(C)F [Example 74, (E)-3-(3,5-difluoro-4-((1R,3R)-5-fluoro-2-(2-fluoro-2-methylpropyl)-3-methyl-1,2,3,4-tetrahydrobenzofuro[2,3-c]pyridin-1-yl)phenyl)acrylic acid]",0.21,0.09,1.35,5850,142,3.16,2.41,2530
"C[C@@H]1Cc2c(ccc3[nH]ncc23)[C@@H](c2c(F)cc(/C=C/C(=O)O)cc2F)N1CC(C)(C)F [Example 94, (E)-3-(3,5-difluoro-4-((6S,8R)-7-(2-fluoro-2-methylpropyl)-8-methyl-6,7,8,9-tetrahydro-3H-pyrazolo[4,3-f]isoquinolin-6-yl)phenyl)acrylic acid]",0.04,0.03,0.02,,,,,
"CCn1cc(-c2ccc3oc4c(c3c2)C[C@@H](C)N(CC(C)(C)F)[C@@H]4c2c(F)cc(/C=C/C(=O)O)cc2F)cn1 [Example 97, (E)-3-(4-((1R,3R)-6-(1-ethyl-1H-pyrazol-4-yl)-2-(2-fluoro-2-methylpropyl)-3-methyl-1,2,3,4-tetrahydrobenzofuro[2,3-c]pyridin-1-yl)-3,5-difluorophenyl)acrylic acid]",0.24,0.2,6.11,,,,,

# Second part, led by results:
IC50 (estrogen receptor (ER)) [nM],IC50 (MCF7 cells) [nM],DC50 (ERα) [nM],Structure (SMILES),AUC [1] [ng·h/mL],CL/F [1] [mL/min/kg],half-life [1] [h],MRT [1] [h],Cmax [1] [ng/mL]
0.33,0.01,0.1,"C[C@@H]1Cc2cc(-c3cnn(C)c3)ccc2[C@@H](c2c(F)cc(/C=C/C(=O)O)cc2F)N1CC(C)(C)F [Example 57, (E)-3-(3,5-difluoro-4-((1S,3R)-2-(2-fluoro-2-methylpropyl)-3-methyl-6-(1-methyl-1H-pyrazol-4-yl)-1,2,3,4-tetrahydroisoquinolin-1-yl)phenyl)acrylic acid]",15100,55.2,2.78,3.23,5070
4.06,3.4,1.62,"CC1Cc2cc3ocnc3cc2C(c2c(F)cc(/C=C/C(=O)O)cc2F)N1CC(C)(C)F [Example 81, (E)-3-(3,5-difluoro-4-((5S,7R/5R,7S)-6-(2-fluoro-2-methylpropyl)-7-methyl-5,6,7,8-tetrahydrooxazolo[5,4-g]isoquinolin-5-yl)phenyl)acrylic acid]",,,,,
4.47,0.64,7.13,"CC1Cc2c(oc3cc(F)ccc23)C(c2c(F)cc(/C=C/C(=O)O)cc2F)N1CC(C)(C)F [Example 86, (E)-3-(3,5-difluoro-4-((1R,3R/1S,3S)-7-fluoro-2-(2-fluoro-2-methylpropyl)-3-methyl-1,2,3,4-tetrahydrobenzofuro[2,3-c]pyridin-1-yl)phenyl)acrylic acid]",,,,,
1.22,0.67,1.61,"CC1Cc2c(oc3ccc(-c4cn[nH]c4)cc23)C(c2c(F)cc(/C=C/C(=O)O)cc2F)N1CC(C)(C)F [Example 88, (E)-3-(3,5-difluoro-4-((1R,3R/1S,3S)-2-(2-fluoro-2-methylpropyl)-3-methyl-6-(1H-pyrazol-4-yl)-1,2,3,4-tetrahydrobenzofuro[2,3-c]pyridin-1-yl)phenyl)acrylic acid]",,,,,
0.21,0.08,0.31,"CC1Cc2c(oc3ccc(-c4cnn(C)c4)cc23)C(c2c(F)cc(/C=C/C(=O)O)cc2F)N1CC(C)(C)F [Example 89, (E)-3-(3,5-difluoro-4-((1R,3R/1S,3S)-2-(2-fluoro-2-methylpropyl)-3-methyl-6-(1-methyl-1H-pyrazol-4-yl)-1,2,3,4-tetrahydrobenzofuro[2,3-c]pyridin-1-yl)phenyl)acrylic acid]",7710,108,3.97,5.69,1270
1.88,0.83,2.33,"CC1Cc2cc3[nH]ncc3cc2C(c2c(F)cc(/C=C/C(=O)O)cc2F)N1CC(C)(C)F [Example 91, (E)-3-(3,5-difluoro-4-((5S,7R/5R,7S)-6-(2-fluoro-2-methylpropyl)-7-methyl-5,6,7,8-tetrahydro-1H-pyrazolo[3,4-g]isoquinolin-5-yl)phenyl)acrylic acid]",,,,,
